For this experiment, the system named is human chondrocytes.

The values that follow come from patent US5856356A, “Use of strontium salts and pharmaceutical compositions thereof for the treatment of arthrosis” (Adir et Compagnie, priority 1996, dated 1999).

Regarding `[Cl-].[Cl-].[Sr+2]` [SrCl2, strontium chloride], the “production of sulfated glycoseaminoglycans” value (24 hours, concentration printed "210^-3 M", control 43 871 ± 1124, p < 0.05) is 52 839 c.p.m./10^6 cells. Moreover, the “effect on the synthesis of proteoglycans / stimulation of the chondroformation (in words)” value (human chondrocytes, same effects as compound A) was “exhibits the same effects”.
